Data: US9695155B2, “Herbicidal substituted pyrimidinyloxy benzene compounds” (E. I. DU PONT DE NEMOURS AND COMPANY, priority 2013, dated 2017)

Experiments:
[1] = test system: palmer pigweed; experiment: Test E preemergence; type: in vivo, Amaranthus palmeri; settings: for Pigweed, Palmer plant response rating: scale 0 to 100 (0 no effect, 100 complete control); for Plant response rating, Pigweed, Palmer: scale 0 to 100, 0 no effect, 100 complete control
Text: (§1) Seeds of plant species selected from corn (Zea mays), soybean (Glycine max), velvetleaf (Abutilon theophrasti), lambsquarters (Chenopodium album), wild poinsettia (Euphorbia heterophylla), palmer pigweed (Amaranthus palmeri), waterhemp (common waterhemp, Amaranthus rudis), surinam grass (Brachiaria decumbens), large (Lg) crabgrass (Digitaria sanguinalis), Brazilian crabgrass (Digitaria horizontalis), fall panicum (Panicum dichotomiflorum), giant foxtail (Setaria faberii), green foxtail (Setaria viridis), goosegrass (Eleusine indica), johnsongrass (Sorghum halepense), ragweed (common ragweed, Ambrosia elatior), barnyardgrass (Echinochloa crus-galli), sandbur (southern sandbur, Cenchrus echinatus), arrowleaf sida (Sida rhombifolia), Italian ryegrass (Lolium multiflorum), dayflower (Virginia (VA) dayflower, Commelina virginica), field bindweed (Convolvulus arvensis), morningglory (Ipomoea coccinea), nightshade (eastern black nightshade, Solanum ptycanthum), kochia (Kochia scoparia), yellow nutsedge (Cyperus esculentus), cocklebur (common cocklebur, Xanthium strumarium), smartweed (ladysthumb smartweed, and hairy beggarticks (Bidens pilosa), were planted into a silt loam soil and treated preemergence with test chemicals formulated in a non-phytotoxic solvent mixture which included a surfactant.
(§2) At the same time, plants from these crop and weed species and also horseweed (Canada horseweed, Conyza canadensis), waterhemp_RES1, (ALS & Triazine resistant common waterhemp, Amaranthus rudis), and waterhemp_RES2, (ALS & HPPD resistant common waterhemp, Amaranthus rudis) were planted in pots containing Redi-Earth® planting medium (Scotts Company, 14111 Scottslawn Road, Marysville, Ohio 43041) comprising spaghnum peat moss, vermiculite, wetting agent and starter nutrients were treated with postemergence applications of test chemicals formulated in the same manner. Plants ranged in height from 2 to 18 cm for postemergence treatments (1- to 4-leaf stage). Treated plants and controls were maintained in a greenhouse for 14 to 21 days, after which time all species were compared to controls and visually evaluated. Plant response ratings, summarized in Table E, are based on a scale of 0 to 100 where 0 is no effect and 100 is complete control. A dash (-) response means no test result.

[2] = test system: arrowleaf sida; experiment: Test E postemergence; type: in vivo, Sida rhombifolia
Method in brief: (§3)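 Test chemicals formulated in a non-phytotoxic solvent mixture containing a surfactant were applied preemergence to seeds in silt loam soil or postemergence to plants at the 1- to 4-leaf stage in potting mix. After 14 to 21 days in a greenhouse, injury was visually rated against controls on a 0-100 scale (0 = no effect, 100 = complete control).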

[3] = test system: waterhemp_RES1 (ALS & Triazine resistant common waterhemp); experiment: Test E postemergence; type: in vivo, Amaranthus rudis
Method in brief: as §3

[4] = test system: waterhemp; experiment: Test E postemergence; type: in vivo, Amaranthus rudis
Method in brief: as §3

[5] = test system: waterhemp_RES2 (ALS & HPPD resistant common waterhemp); experiment: Test E postemergence; type: in vivo, Amaranthus rudis
Method in brief: as §3

[6] = test system: surinam grass; experiment: Test E preemergence; type: in vivo, Brachiaria decumbens; settings: for Surinam Grass plant response rating: scale 0 to 100 (0 no effect, 100 complete control); for Plant response rating, Surinam Grass: scale 0 to 100, 0 no effect, 100 complete control
Text: as §1, §2

[7] = test system: lambsquarters; experiment: Test C preemergence; type: in vivo, Chenopodium album; settings: for Lambsquarters plant response rating: preemergence, scale 0 (no effect) to 100 (complete control); for Plant response rating, Lambsquarters: Preemergence, scale 0 to 100, 0 no effect, 100 complete control
Method in brief: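 Injury was assessed visually against controls 13 to 15 days after application, with 0 meaning no effect and 100 full control; missing entries are shown as a dash. Preemergence sprays hit seeded loam–sand soil, postemergence sprays hit 1- to 4-leaf plants.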

[8] = Postemergence, 62 g ai/ha, scale 0 to 100
[9] = Postemergence, 125 g ai/ha, scale 0 to 100
[10] = Postemergence, 31 g ai/ha, scale 0 to 100
[11] = Postemergence, 250 g ai/ha, scale 0 to 100
[12] = postemergence, 16 g ai/ha, scale 0 to 100, 0 no effect, 100 complete control

SMILES	Pigweed, Palmer plant response rating ([1]; 31 g ai/ha)	Pigweed, Palmer plant response rating ([1]; 62 g ai/ha)	Plant response rating, Pigweed, Palmer ([1]; 125 g ai/ha)	Plant response rating, Pigweed, Palmer ([1]; 250 g ai/ha)	Plant response rating, Arrowleaf Sida [2, 8]	Plant response rating, Arrowleaf Sida [2, 9]	Plant response rating, Waterhemp_RES1 [3, 8]	Plant response rating, Waterhemp_RES1 [3, 9]	Plant response rating, Waterhemp [4, 8]	Plant response rating, Waterhemp [4, 9]	Plant response rating, Waterhemp_RES2 [5, 8]	Plant response rating, Waterhemp_RES2 [5, 9]	Surinam Grass plant response rating ([6]; 31 g ai/ha)	Surinam Grass plant response rating ([6]; 62 g ai/ha)	Plant response rating, Surinam Grass ([6]; 125 g ai/ha)	Plant response rating, Surinam Grass ([6]; 250 g ai/ha)	Lambsquarters plant response rating ([7]; 125 g ai/ha)	Lambsquarters plant response rating ([7]; 250 g ai/ha)	further results
N#Cc1cccc(Oc2ncc(Cl)cn2)c1-n1cc(Cl)cn1 [Compound 72]	100	100	100	100	50	75	75	95	80	98	80	90	20	20	10	30	100	100	Pigweed, Palmer plant response rating ([1]; 16 g ai/ha): 95; Surinam Grass plant response rating ([6]; 16 g ai/ha): 20; Lambsquarters plant response rating ([7]; 62 g ai/ha): 100; Plant response rating, Lambsquarters ([7]; 31 g ai/ha): 98
N#Cc1cnn(-c2c(C#N)cccc2Oc2ncc(Cl)cn2)c1 [Compound 200]	40	100	100	100	80	90	90	100	95	95	90	100	5	70	100	100	98	98	Plant response rating, Arrowleaf Sida [2, 10]: 80; Plant response rating, Arrowleaf Sida [2, 11]: 98; Plant response rating, Arrowleaf Sida [2, 12]: 60; Plant response rating, Waterhemp_RES1 [3, 10]: 80; Plant response rating, Waterhemp_RES1 [3, 11]: 100; Plant response rating, Waterhemp_RES1 [3, 12]: 70; Plant response rating, Waterhemp [4, 10]: 90; Plant response rating, Waterhemp [4, 11]: 100; Plant response rating, Waterhemp [4, 12]: 80; Plant response rating, Waterhemp_RES2 [5, 10]: 90; Plant response rating, Waterhemp_RES2 [5, 11]: 100; Plant response rating, Waterhemp_RES2 [5, 12]: 90; Plant response rating, Lambsquarters ([7]; 62 g ai/ha): 98
